Data on eleven molecules can be found in ChEMBL document CHEMBL1201862, “PubChem BioAssay data set” (2004).

Structures are written as SMILES. Several values for one entry are separate records, joined by “and”; a condition that tells them apart may be missing. Identical values can stand only once.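 48-hour exposure; five concentrations; linearly interpolated endpoints. At the GI50, growth is halved.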 Activity calls are given as the source filed them. Rule as the data show it: active = GI50 up to about 1.1 µM and inactive = higher. Starred links: 1 amine or outer side, 2 acyl side, 3 side chain; linkers in the order of their positions; H or OH if unused. Positions of bridges follow the written chain, without caps; N, C: chain ends. Non-standard residues stand in square brackets, D forms with d. Residues, ends and D or L forms follow the SMILES beside them. Chains are numbered I, II in the order given. ξ: configuration not given here. X42 = N=C(N)NCCC[C@H](NC(=N)CCCCCCC(=N)N[C@@H](CCCNC(=N)N)C(=O)[*:2])C(=O)[*:1]; Oic(3aξ,7aξ) = O=C(O)[C@@H]1CC2CCCCC2N1; Igl = N[C@H](C(=O)O)C1Cc2ccccc2C1; Hyp = O=C(O)[C@@H]1C[C@@H](O)CN1

Holding throughout (test): growth of human tumour cells (NCI), 48 h
Assay [1] concerns SK-OV-3.
The subject of assay [2] is NCI-H460.
Assay [3] relates to HCT-15.
Assay [4] has as its system A549.
Assay [5] deals with SR.
For assay [6], the system named is SK-MEL-2.
Assay [7] concerns CAKI-1.
Assay [8] relates to T47D.
The subject of assay [9] is Malme-3M.
The subject of assay [10] is SNB-19.
Assay [11] relates to MOLT-4.
Assay [12] deals with UACC-62.
Assay [13] deals with EKVX.
The subject of assay [14] is HOP-92.
For assay [15], the system named is M14.
Assay [16] concerns SW-620.
The subject of assay [17] is NCI-H23.
For assay [18], the system named is HCC 2998.
Assay [19] has as its system SNB-75.

Turning to `CSc1nc(C#N)c(N)n1C`, the GI50 in [1] is > 100 µM (inactive); in assay [2] it was > 100 µM (inactive); in assay [3], > 100 µM; in [4] it was > 100 µM (inactive); in assay [5], > 100 µM (inactive); in assay [6], > 100 µM (inactive). The GI50 in assay [7], in assay [8], in [9], in assay [10], in [11] and in [12] was > 100 µM (inactive) throughout. Further, the GI50 in assay [13], in assay [14], in assay [15], in assay [16] and in [17] was > 100 µM (inactive) in each case.
In the case of `O=C1CCC(=O)N1CNc1ccc2c(c1)Sc1ccccc1O2`, the GI50 is 28.4 µM in [3]; 33 µM (inactive) in [4]; 18.1 µM (inactive) in assay [6]; 32.7 µM (inactive) in assay [7]; 25.2 µM (inactive) in [8]; 58.6 µM (inactive) in [9]. The GI50 in [10] was 67.3 µM (inactive); in assay [11], 61.7 µM (inactive); in assay [12], 48.9 µM (inactive); in assay [13] it was 22 µM (inactive); in [14], 21.5 µM (inactive); in assay [15], 27.2 µM (inactive). Besides, the GI50 was 27.9 µM (inactive) in [16] and 38.5 µM (inactive) in assay [17].
Regarding `O=C(O)CSCC(=O)Nc1ccc2cccc3c2c1CC3`, the GI50 was > 100 µM in assay [3]; > 100 µM (inactive) in [4]; > 100 µM (inactive) in assay [6]; > 100 µM (inactive) in [7]; > 100 µM (inactive) in [8]; > 100 µM (inactive) in [9]. The GI50 in [10], in [11], in assay [12], in assay [13], in assay [18] and in assay [14] was > 100 µM (inactive) throughout. Moreover, the GI50 in assay [15], in [16], in [19] and in assay [17] was > 100 µM (inactive) throughout.
Regarding `Cn1c(CO)ccc1-c1ccc(-c2ccc[se]2)[se]1`, the GI50 was 13.6 µM (inactive) in [1]; 14.2 µM (inactive) in assay [2]; 35.9 µM in assay [3]; 17.1 µM (inactive) in assay [4]; 30.3 µM (inactive) in assay [5]; 41.1 µM (inactive) in assay [6]. For the same molecule, the GI50 in assay [7] was < 0.01 µM (active); in assay [8], 0.155 µM (active); in [9], > 72.1 µM (inactive); in assay [10], 30.7 µM (inactive); in [11], 19.6 µM (inactive); in assay [13] it was 35.1 µM (inactive). Further, the GI50 in assay [18] was 0.798 µM (active); in assay [15], 42.9 µM (inactive); in assay [16] it was 0.0959 µM (active); in assay [19], 12.8 µM (inactive); in assay [17], 20.5 µM (inactive).
`O=C(c1ccccc1)N1N=C(C(F)(F)F)CC1(O)C(F)(F)F` (centres undefined): the GI50 in assay [2] is > 100 µM (inactive); in assay [3], > 100 µM; in [4], > 100 µM (inactive); in assay [5] it was > 100 µM (inactive); in [6], > 100 µM (inactive); in assay [8] it was > 100 µM (inactive). Moreover, the GI50 in assay [9], in [10], in assay [11], in assay [13], in [18] and in [15] was > 100 µM (inactive) in each case. The GI50 in [16], in assay [19] and in [17] was > 100 µM (inactive) throughout.
Take `CC(=NNC(=S)Nc1ccccc1)c1cccc(C(C)=NNC(=S)Nc2ccccc2)n1`: the GI50 in assay [1] is 5.98 µM (inactive); in assay [2], 2.65 µM (inactive); in [3], 4.58 µM; in assay [4], 3.94 µM (inactive); in [6], 41.1 µM (inactive); in assay [7] it was 1.79 µM (inactive). For the same molecule, the GI50 in [8] was 5.96 µM (inactive); in assay [9] it was 4.57 µM (inactive); in assay [10], 19.3 µM (inactive); in assay [11], 2.29 µM (inactive); in assay [12], 2.43 µM (inactive); in assay [13], 6.98 µM (inactive). In addition, the GI50 was 3.64 µM (inactive) in assay [18]; 2.25 µM (inactive) in assay [14]; 1.97 µM (inactive) in [15]; 3.66 µM (inactive) in assay [16]; 10.8 µM (inactive) in assay [19]; 7.46 µM (inactive) in assay [17].
Consider `O=C1CC(c2ccco2)C2(C(=O)NC(=O)NC2=O)C(c2ccco2)C1` (centres undefined), for which the GI50 was > 75 µM (inactive) in [1]; > 75 µM (inactive) in [2]; > 75 µM in assay [3]; > 75 µM (inactive) in [4]; > 75 µM (inactive) in [5]; > 75 µM (inactive) in assay [6]. For the same molecule, the GI50 in [7], in assay [8], in assay [9], in assay [10], in [11] and in assay [12] was > 75 µM (inactive) throughout. In addition, the GI50 in [13], in assay [18], in [15], in [16], in assay [19] and in assay [17] was > 75 µM (inactive) throughout.
Regarding `COc1ncc(C#CC(=O)c2ccccc2)c(OC)n1`, the GI50 in [1] is 19.7 µM (inactive); in assay [2] it was 13.4 µM (inactive); in assay [3], 1.37 µM; in assay [4] it was 11.6 µM (inactive); in assay [6], 5.07 µM (inactive); in assay [7] it was 2.76 µM (inactive). The GI50 was 5.83 µM (inactive) in assay [8]; 1.67 µM (inactive) in [9]; 15.8 µM (inactive) in [10]; 0.679 µM (active) in assay [11]; 4.03 µM (inactive) in assay [12]; 3.51 µM (inactive) in assay [13]. The GI50 in assay [18] was 6.12 µM (inactive); in [14] it was 2.15 µM (inactive); in assay [15], 2.22 µM (inactive); in assay [16], 1.63 µM (inactive); in [19], 5.2 µM (inactive); in [17], 4.33 µM (inactive).
For the molecule `CCC(=O)C(CCN1CCC(N2C(=O)C(CCC#N)c3ccccc32)CC1)(c1ccccc1)c1ccccc1` (centres undefined), the GI50 in [1] is 15.5 µM (inactive); in assay [2], 11.3 µM (inactive); in assay [3], 13.1 µM; in [4], 14 µM (inactive); in assay [5], 0.0486 µM (active); in assay [6], 13.9 µM (inactive). The GI50 in [7] is 21.9 µM (inactive); in assay [8] it was 7.85 µM (inactive); in assay [9] it was 12.1 µM (inactive); in assay [10] it was 17.2 µM (inactive); in [11], 4.56 µM (inactive); in assay [12], 15.6 µM (inactive). The GI50 in assay [18] was 12.4 µM (inactive); in assay [15], 10.1 µM (inactive); in assay [16], 11.8 µM (inactive); in [19] it was 12.9 µM (inactive); in assay [17], 18.2 µM (inactive).
In the case of `N=C(N)NCCC[C@H](NC(=O)[C@@H]1CC2CCCCC2N1C(=O)[C@@H](NC(=O)[C@H](CO)NC(=O)[C@@H](NC(=O)CNC(=O)[C@@H]1CCCN1C(=O)[C@H](CCCNC(=N)N)NC(=O)[C@H](CCCNC(=N)N)NC(=N)CCCCCCC(=N)N[C@@H](CCCNC(=N)N)C(=O)N[C@@H](CCCNC(=N)N)C(=O)N1CCC[C@H]1C(=O)N1C[C@H](O)C[C@H]1C(=O)NCC(=O)N[C@H](C(=O)N[C@@H](CO)C(=O)N[C@H](C(=O)N1C2CCCCC2C[C@H]1C(=O)N[C@@H](CCCNC(=N)N)C(=O)O)C1Cc2ccccc2C1)C1Cc2ccccc2C1)C1Cc2ccccc2C1)C1Cc2ccccc2C1)C(=O)O` (some centres undefined) (I: RP[Hyp]G[Igl]S[Igl][Oic(3aξ,7aξ)]R-OH / II: RPG[Igl]S[Igl][Oic(3aξ,7aξ)]R-OH; linker I:N-II:N via X42), the GI50 in assay [1] is 1.83 µM (inactive); in [2], 1.91 µM (inactive); in [3] it was 2.22 µM; in [4] it was 3.08 µM (inactive); in [5], 0.169 µM (active); in assay [6] it was 2.33 µM (inactive). The GI50 is 2.1 µM (inactive) in assay [7]; 2.19 µM (inactive) in [8]; 2.31 µM (inactive) in [9]; 2.36 µM (inactive) in [10]; 0.413 µM (active) in assay [11]; 1.83 µM (inactive) in assay [12]. Moreover, the GI50 in [13] is 2.03 µM (inactive); in assay [14], 2.21 µM (inactive); in assay [15], 3.18 µM (inactive); in assay [16], 2.28 µM (inactive); in assay [17], 1.92 µM (inactive).
On to `c1ccc2[nH]c(-c3cscn3)nc2c1` [THIABENDAZOLE], for which the GI50 is > 100 µM (inactive) in assay [1]; > 100 µM (inactive) and 54 µM (inactive) in assay [2]; > 100 µM in assay [3]; > 100 µM (inactive) in assay [4]; > 100 µM (inactive) in [6]; > 100 µM (inactive) in [8]. Also, the GI50 in [9], in [10], in [11], in [12], in assay [13] and in assay [18] was > 100 µM (inactive) throughout. For the same molecule, the GI50 in [14], in assay [15], in [16], in assay [19] and in assay [17] was > 100 µM (inactive) in each case.
